From publication PMC10041525, “New Dual Inhibitors of Bacterial Topoisomerases with Broad-Spectrum Antibacterial Activity and In Vivo Efficacy against Vancomycin-Intermediate Staphylococcus aureus” (Journal of Medicinal Chemistry, 2023)
Values after ≈ are worked out from the molar mass of the structure shown. Where two headings read alike, the source gives them in different places.

How the values were obtained:
[1] = system: E. coli ATCC 35218; assay: IHMA QC MIC; type: cell-based; settings: Escherichia coli, ATCC35218; read-out: MIC (QC, repeated tests)
Description: The panel of Hungarian clinical isolates and controls measured following the same method as detailed above, and albeit measurements were carried out in 384-well microtiter plates (Corning Inc.).

[2] = system: 100 A. baumannii strains (50 MDR, 50 non-MDR); assay: MIC broth microdilution at IHMA Europe, panel of 100 strains; type: cell-based; settings: Acinetobacter baumannii, read-out: MIC

For `C[C@@H](O)[C@H]1C(=O)N2C(C(=O)O)=C(S[C@@H]3CN[C@H](C(=O)N(C)C)C3)[C@H](C)[C@H]12` [Meropenem, meropenem], the MIC [1] was ≤ 0.06 µg/mL, the MIC ([2]; A. baumannii IHMA 1769393, Lithuania 2018, Non-MDR) was 0.25 µg/mL (≈ 0.652 µM) and the MIC ([2]; A. baumannii IHMA 1769782, Israel 2018, MDR) was > 16 µg/mL. The MIC ([2]; A. baumannii IHMA 1769910, Israel 2018, Non-MDR) was 0.25 µg/mL (≈ 0.652 µM), the MIC ([2]; A. baumannii IHMA 1790317, Czech Republic 2018, Non-MDR) was 0.12 µg/mL (≈ 0.313 µM) and the MIC ([2]; A. baumannii IHMA 1790916, Romania 2018, Non-MDR) was ≤ 0.06 µg/mL. For the same molecule, the MIC ([2]; A. baumannii IHMA 1791877, Israel 2018, MDR) was > 16 µg/mL, the MIC ([2]; A. baumannii IHMA 1792961, Jordan 2018, MDR) was > 16 µg/mL and the MIC ([2]; A. baumannii IHMA 1795669, Tunisia 2018, Non-MDR) was 0.25 µg/mL (≈ 0.652 µM). For the same molecule, the MIC ([2]; A. baumannii IHMA 1814276, Lebanon 2018, MDR) was > 16 µg/mL, the MIC ([2]; A. baumannii IHMA 1815198, Kuwait 2018, MDR) was > 16 µg/mL and the MIC ([2]; A. baumannii IHMA 1815856, Israel 2018, MDR) was > 16 µg/mL. The MIC ([2]; A. baumannii IHMA 1821468, South Africa 2018, Non-MDR) was 0.25 µg/mL (≈ 0.652 µM), the MIC ([2]; A. baumannii IHMA 1829500, Georgia 2018, Non-MDR) was 0.12 µg/mL (≈ 0.313 µM) and the MIC ([2]; A. baumannii IHMA 1830924, United Kingdom 2018, Non-MDR) was 0.5 µg/mL (≈ 1.3 µM). The MIC ([2]; A. baumannii IHMA 1849819, Kuwait 2018, MDR) was > 16 µg/mL, the MIC ([2]; A. baumannii IHMA 1849829, Kuwait 2018, Non-MDR) was 0.12 µg/mL (≈ 0.313 µM) and the MIC ([2]; A. baumannii IHMA 1857118, Slovenia 2018, Non-MDR) was 0.25 µg/mL (≈ 0.652 µM). The MIC ([2]; A. baumannii IHMA 1863631, France 2018, Non-MDR) was 0.12 µg/mL (≈ 0.313 µM), the MIC ([2]; A. baumannii IHMA 1870054, United States 2018, Non-MDR) was 0.25 µg/mL (≈ 0.652 µM) and the MIC ([2]; A. baumannii IHMA 1884428, Italy 2018, Non-MDR) was 0.12 µg/mL (≈ 0.313 µM). It also gave an MIC ([2]; A. baumannii IHMA 1884990, Germany 2018, Non-MDR) of 0.25 µg/mL (≈ 0.652 µM), an MIC ([2]; A. baumannii IHMA 1900538, Turkey 2018, Non-MDR) of 0.12 µg/mL (≈ 0.313 µM) and an MIC ([2]; A. baumannii IHMA 1913773, Kenya 2018, Non-MDR) of 0.25 µg/mL (≈ 0.652 µM). For the same molecule, the MIC ([2]; A. baumannii IHMA 1926285, Qatar 2018, Non-MDR) was ≤ 0.06 µg/mL, the MIC ([2]; A. baumannii IHMA 1926288, Qatar 2018, MDR) was > 16 µg/mL and the MIC ([2]; A. baumannii IHMA 1957343, Portugal 2019, Non-MDR) was 0.25 µg/mL (≈ 0.652 µM). For the same molecule, the MIC ([2]; A. baumannii IHMA 1963732, Turkey 2019, MDR) was > 16 µg/mL, the MIC ([2]; A. baumannii IHMA 1967860, Spain 2019, Non-MDR) was 0.25 µg/mL (≈ 0.652 µM) and the MIC ([2]; A. baumannii IHMA 1971673, Latvia 2019, MDR) was > 16 µg/mL. For the same molecule, the MIC ([2]; A. baumannii IHMA 1975075, Israel 2019, Non-MDR) was 0.25 µg/mL (≈ 0.652 µM), the MIC ([2]; A. baumannii IHMA 1977077, Kuwait 2019, Non-MDR) was 0.5 µg/mL (≈ 1.3 µM) and the MIC ([2]; A. baumannii IHMA 1983151, Greece 2019, MDR) was > 16 µg/mL. The MIC ([2]; A. baumannii IHMA 1984665, Lithuania 2019, MDR) was > 16 µg/mL, the MIC ([2]; A. baumannii IHMA 1986678, Turkey 2019, Non-MDR) was 0.25 µg/mL (≈ 0.652 µM) and the MIC ([2]; A. baumannii IHMA 1986738, Turkey 2019, MDR) was > 16 µg/mL. For the same molecule, the MIC ([2]; A. baumannii IHMA 1987162, Croatia 2019, MDR) was > 16 µg/mL, the MIC ([2]; A. baumannii IHMA 1993615, Turkey 2019, MDR) was > 16 µg/mL and the MIC ([2]; A. baumannii IHMA 1994284, Italy 2019, MDR) was > 16 µg/mL. For the same molecule, the MIC ([2]; A. baumannii IHMA 1995161, Czech Republic 2019, Non-MDR) was 0.25 µg/mL (≈ 0.652 µM), the MIC ([2]; A. baumannii IHMA 1997936, Morocco 2019, Non-MDR) was 0.12 µg/mL (≈ 0.313 µM) and the MIC ([2]; A. baumannii IHMA 1999178, Belgium 2019, Non-MDR) was 0.25 µg/mL (≈ 0.652 µM). For the same molecule, the MIC ([2]; A. baumannii IHMA 2003279, Turkey 2019, MDR) was > 16 µg/mL, the MIC ([2]; A. baumannii IHMA 2014367, Jordan 2019, Non-MDR) was 0.25 µg/mL (≈ 0.652 µM) and the MIC ([2]; A. baumannii IHMA 2014931, South Africa 2019, Non-MDR) was 1 µg/mL (≈ 2.61 µM). For the same molecule, the MIC ([2]; A. baumannii IHMA 2019315, Romania 2019, Non-MDR) was 0.12 µg/mL (≈ 0.313 µM), the MIC ([2]; A. baumannii IHMA 2020360, Croatia 2019, MDR) was > 16 µg/mL and the MIC ([2]; A. baumannii IHMA 2031511, Greece 2019, Non-MDR) was 0.12 µg/mL (≈ 0.313 µM). The MIC ([2]; A. baumannii IHMA 2031524, Greece 2019, MDR) was > 16 µg/mL, the MIC ([2]; A. baumannii IHMA 2034657, Tunisia 2019, Non-MDR) was 0.25 µg/mL (≈ 0.652 µM) and the MIC ([2]; A. baumannii IHMA 2035089, Serbia 2019, MDR) was > 16 µg/mL. For the same molecule, the MIC ([2]; A. baumannii IHMA 2035134, Serbia 2019, Non-MDR) was 0.25 µg/mL (≈ 0.652 µM), the MIC ([2]; A. baumannii IHMA 2038976, Hungary 2019, MDR) was > 16 µg/mL and the MIC ([2]; A. baumannii IHMA 2051503, Serbia 2019, MDR) was > 16 µg/mL. The MIC ([2]; A. baumannii IHMA 2058329, Slovenia 2019, Non-MDR) was 0.12 µg/mL (≈ 0.313 µM), the MIC ([2]; A. baumannii IHMA 2065587, France 2019, Non-MDR) was 0.12 µg/mL (≈ 0.313 µM) and the MIC ([2]; A. baumannii IHMA 2099294, United Kingdom 2019, Non-MDR) was 0.25 µg/mL (≈ 0.652 µM). It also gave an MIC ([2]; A. baumannii IHMA 2129256, Qatar 2019, Non-MDR) of 0.12 µg/mL (≈ 0.313 µM), an MIC ([2]; A. baumannii IHMA 2154584, Israel 2020, MDR) of 16 µg/mL (≈ 41.7 µM) and an MIC ([2]; A. baumannii IHMA 2155340, Kenya 2020, MDR) of 16 µg/mL (≈ 41.7 µM). For the same molecule, the MIC ([2]; A. baumannii IHMA 2156634, Turkey 2020, MDR) was > 16 µg/mL.
